The record followed here is patent publication US10226041B2, “Compositions and methods for improving the quality of processed sperm” (Inguran, LLC, priority 2011, dated 2019).

Where “and” joins values, the source holds several entries; their conditions need not be identical. Equal values may be shown once.

For the assay, the system named is sex-sorted sperm cells. In words: Percent intact acrosomes (PIA) of sex sorted sperm post-thaw. It counts as cell-based, bovine. To be noted: for PIA: 3 step. From the text:
In the tables below: VAP (average path velocity (μm/s)); VSL (straight-line velocity (μm/s)); VCL (curvilinear velocity (μm/s)); ALH (average lateral head displacement (μm)); BCF (the number of times the sperm head crosses the mean path/s in Hz); STR (percent straight-line sperm motility); LIN (percent linear sperm motility); PIA (percent intact acrosomes); motile (percent motile sperm); and progressive (percent progressively motile sperm).

As for `O=C(O)CCC(=O)C(=O)O` [AKG, Alpha-ketoglutarate], the PIA runs as follows: (Holstein 3 hr post-thaw (1st block), .25 mg/ml) 89; (Holstein 3 hr post-thaw (1st block), .35 mg/ml) 80; (Holstein 3 hr post-thaw (1st block), .45 mg/ml) 80; (Holstein 3 hr post-thaw (2nd block), .25 mg/ml) 89; (Holstein 3 hr post-thaw (2nd block), .35 mg/ml) 80; (Holstein 3 hr post-thaw (2nd block), .45 mg/ml) 80. Besides, the PIA reads like this: (Holstein 6 hr post-thaw (1st block), .25 mg/ml) 73; (Holstein 6 hr post-thaw (1st block), .35 mg/ml) 85; (Holstein 6 hr post-thaw (1st block), .45 mg/ml) 79; (Holstein 6 hr post-thaw (2nd block), .25 mg/ml) 73; (Holstein 6 hr post-thaw (2nd block), .35 mg/ml) 85; (Holstein 6 hr post-thaw (2nd block), .45 mg/ml) 79. Also, the PIA is on record as 62 (Jersey 3 hr post-thaw, .25 mg/ml); 54 (Jersey 3 hr post-thaw, .35 mg/ml); 71 (Jersey 3 hr post-thaw, .45 mg/ml).
Turning to vitamin B12, the “PIA (percent intact acrosomes)” value (0.5 mg/ml, 2 step F, 3 hrs post-thaw, Bulls 1-5) is 84% and 87% and 88% and 79% and 74%. Besides, the PIA reads like this: (.15 mg/ml, Holstein, 1M/straw, 3 hr post-thaw) 66; (.15 mg/ml, Holstein, 2.1M/straw, 3 hr post-thaw) 72; (.15 mg/ml, Jersey, 2.1M/straw, 3 hr post-thaw) 63; (.25 mg/ml, Holstein, 1M/straw, 3 hr post-thaw) 58; (.25 mg/ml, Holstein, 2.1M/straw, 3 hr post-thaw) 76; (.25 mg/ml, Holstein, 5M/straw, 3 hr post-thaw) 68. Also, the PIA was 78 (.25 mg/ml, Jersey, 2.1M/straw, 3 hr post-thaw); 70 (.35 mg/ml, Holstein, 1M/straw, 3 hr post-thaw); 60 (.35 mg/ml, Holstein, 2.1M/straw, 3 hr post-thaw); 69 (.35 mg/ml, Holstein, 5M/straw, 3 hr post-thaw); 50 (.5 mg/ml, Holstein, 5M/straw, 3 hr post-thaw).
